These results are taken from PMC6271978, “1H-2,3-Dihydroperimidine Derivatives: A New Class of Potent Protein Tyrosine Phosphatase 1B Inhibitors” (Molecules, 2013).

Structures are written as SMILES.

Format in all cases: biochemical
The target of one assay is T1, SHP-1 (Homo sapiens, UniProt P29350).
T1 construct: made in house
As to the kind of experiment: SHP-1 inhibition, OMFP substrate assay. The method, then: (§1) In addition to potency improvements, we investigated the selectivity of three representative compounds, namely, 1, 46 and 49 against other PTPs (TCPTP, SHP-1, SHP-2, LAR). […] Besides TCPTP, we tested the inhibitory activity of these compounds on other three homogenous enzymes SHP-1, SHP-2, and LAR [25].
(§2) A colorimetric assay to measure inhibition against PTP1B and TCPTP was performed in 96-well plates. Briefly, the tested compounds were solubilized in DMSO and serially diluted into concentrations for the inhibitory test. The assays were carried out in a final volume of 100 μL containing 50 mmol/L MOPS, pH 6.5, 2 mmol/L pNPP, 30 nmol/L GST-PTP1B or GST-TCPTP,and 2% DMSO, and the catalysis of pNPP was continuously monitored on a SpectraMax 340 microplate reader at 405 nm for 3 min at 30 °C. The IC50 value was calculated from the nonlinear curve fitting of the percent inhibition [inhibition (%)] vs. the inhibitor concentration using the Equation (1): Inhibition (%) = 100/[1 + (IC50/[I]k)] (1) where k is the Hill coefficient. To study the inhibition on the other PTPase family members, SHP1, SHP2 and LAR were prepared and assays were performed according to procedures described previously. Briefly, the enzymatic activity of the SHP1, SHP2 and LARwere determined at 30 °C by monitoring the dephosphorylation of substrate 3-o-methylfluorescein phosphate (OMFP), product was then detected at a 485 nm excitation wavelength and 530 nm emission wavelength by the EnVision multilabe plate reader (Perkin-Elmer Life Sciences, Boston, MA, USA). The assays were carried out in a final volume of 50 μL containing 50 mmol/L MOPS, pH 6.8, 10 μmol/L OMFP, 20 nmol/L recombinant enzyme, 2 mmol/L dithiothreitol , 1 mmol/L EDTA, and 2% DMSO. The initial rate of the dephosphorylation was presented by the early linear region of the enzymatic reaction kinetic curve, the inhibitory activity of the compound was continuously monitored.

For a further assay, the target named is T2, LAR (Homo sapiens, UniProt P10586).
T2 sequence (P10586 1352-1607 limits assumed): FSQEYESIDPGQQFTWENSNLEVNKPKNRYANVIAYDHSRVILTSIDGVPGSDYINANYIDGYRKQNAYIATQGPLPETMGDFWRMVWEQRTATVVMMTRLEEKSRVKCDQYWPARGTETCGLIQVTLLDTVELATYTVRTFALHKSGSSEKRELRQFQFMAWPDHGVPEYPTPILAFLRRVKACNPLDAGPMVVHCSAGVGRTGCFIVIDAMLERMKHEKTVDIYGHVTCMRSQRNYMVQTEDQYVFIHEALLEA
As to the kind of experiment: LAR inhibition, OMFP substrate assay. Conditions: NA = no activity (inhibitory ratio lower than 50% at the dose of 20 μg/mL), PC = Na3VO4. The method, then:
as §1
as §2, with “To study the inhibition on the other PTPase family members, SHP1, SHP2 and LAR were prepared and assays were performed according to procedures described previously.” left out, “The assays were carried out in a final volume of 50 μL containing 50 mmol/L MOPS, pH 6.8, 10 μmol/L OMFP, 20 nmol/L recombinant enzyme, 2 mmol/L dithiothreitol , 1 mmol/L EDTA, and 2% DMSO. The initial rate of the dephosphorylation was presented by the early linear region of the enzymatic reaction kinetic curve, the inhibitory activity of the compound was continuously monitored.” left out

In the next assay the target is T3, SHP-2 (Homo sapiens, UniProt Q06124).
T3 construct: made in house
T3 sequence (Q06124 1-593): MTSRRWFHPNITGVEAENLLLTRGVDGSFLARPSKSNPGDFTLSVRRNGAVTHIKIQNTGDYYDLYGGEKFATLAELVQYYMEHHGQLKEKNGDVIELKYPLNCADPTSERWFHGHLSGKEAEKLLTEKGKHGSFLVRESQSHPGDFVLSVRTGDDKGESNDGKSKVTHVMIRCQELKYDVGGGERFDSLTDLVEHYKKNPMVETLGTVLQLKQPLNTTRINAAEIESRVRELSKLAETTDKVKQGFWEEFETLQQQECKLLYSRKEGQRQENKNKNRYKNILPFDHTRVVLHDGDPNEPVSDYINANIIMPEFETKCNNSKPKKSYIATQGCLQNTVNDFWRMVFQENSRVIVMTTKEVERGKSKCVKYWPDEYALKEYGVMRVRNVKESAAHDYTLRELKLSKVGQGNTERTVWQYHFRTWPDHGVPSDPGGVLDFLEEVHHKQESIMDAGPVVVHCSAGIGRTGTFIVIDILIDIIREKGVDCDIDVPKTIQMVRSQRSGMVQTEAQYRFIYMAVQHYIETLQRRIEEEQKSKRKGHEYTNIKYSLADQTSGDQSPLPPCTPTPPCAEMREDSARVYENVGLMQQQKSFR
In words: SHP-2 inhibition, OMFP substrate assay. The method, then:
as §1, §2

Where [1] appears, read: OMFP substrate, means ± SD of three replications, PC = Na3VO4.

T1 sequence (P29350 whole entry): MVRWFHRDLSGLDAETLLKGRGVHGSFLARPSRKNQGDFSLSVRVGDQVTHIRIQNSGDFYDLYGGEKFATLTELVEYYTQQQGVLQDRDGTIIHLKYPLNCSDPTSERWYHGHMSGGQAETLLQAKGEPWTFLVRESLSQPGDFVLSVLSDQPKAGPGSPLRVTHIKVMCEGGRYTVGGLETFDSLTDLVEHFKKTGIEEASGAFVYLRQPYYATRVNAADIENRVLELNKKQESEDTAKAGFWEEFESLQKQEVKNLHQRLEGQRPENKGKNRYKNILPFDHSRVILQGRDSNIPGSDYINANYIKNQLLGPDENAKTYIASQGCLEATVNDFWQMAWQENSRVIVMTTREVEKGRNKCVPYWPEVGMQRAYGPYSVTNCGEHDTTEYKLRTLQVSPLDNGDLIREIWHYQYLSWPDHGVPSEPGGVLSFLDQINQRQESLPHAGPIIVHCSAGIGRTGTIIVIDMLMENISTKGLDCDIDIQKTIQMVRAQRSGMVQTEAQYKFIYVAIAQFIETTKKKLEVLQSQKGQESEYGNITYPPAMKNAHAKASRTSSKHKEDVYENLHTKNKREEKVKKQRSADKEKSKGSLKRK

What is called IC50 is the concentration that gives 50% inhibition. High values mean weaker potency in that assay, low ones greater potency in that assay. For `O=C(O)CNC(=O)c1ccc(C2Nc3cccc4cccc(c34)N2)nc1` [Compound 46], the figures for the IC50 against SHP-1 (setting [1]) and against SHP-2 (setting [1]) were 6.01 ± 0.2 µM and 5.95 ± 0.29 µM, respectively. On SHP-1 (from IC50 values), the “selectivity for PTP1B over SHP-1” value is “about 9 fold”. Also, on LAR, the “IC50 LAR” value is recorded as “no visible activities”. Also, the “selectivity for PTP1B over SHP-2” value on SHP-2 (from IC50 values) is recorded as “about 9 fold”.
